Reference: US10792289B2 (Horizon Orphan LLC, priority 2009, dated 2020)

System: stable CF patients
Assay: Phase 2 study: pulmonary function (FEV1, FVC, FEF 25-75)
Type: in vivo, human
Design: FEF 25-75, Median / FEV1, Day 14, Mean / FEF 25-75, Mean: unit not given here; FEV1, Day 1, Mean / FEV1, Day 1, Median / FEV1, Day 14, Median / FEV1, Day 28, Mean / FEV1, Day 28, Median: unit: L
Details: for Increase in FEF 25-75 / Increase in FEV1: median Day 1 to Day 28; for FEV1, Day 1, Mean / FEV1, Day 1, Median / FEV1, Day 14, Mean / FEV1, Day 14, Median / FEV1, Day 28, Mean / FEV1, Day 28, Median / FEV1, Percent Change from Baseline to Day 14, Mean / FEV1, Percent Change from Baseline to Day 14, Median / FEV1, Percent Change from Baseline to Day 28, Mean / FEV1, Percent Change from Baseline to Day 28, Median / % predicted FEV1, Mean / % predicted FEV1, Median: MITT population
Protocol: The following dosage regimens (as nebulizer loaded doses) were evaluated: 120 mg QD (daily); 240 mg QD (daily); and 240 mg BID (twice daily).
Efficacy endpoints including clinical endpoints, pulmonary function tests, and additional microbiological parameters were assessed as change from Day 1 to subsequent visits where the endpoint data was collected. Time to need for intravenous/oral/inhaled anti-pseudomonal antimicrobials were assessed from Day 1 until final visit using survival analysis. The primary population for efficacy analysis was the EE population, but efficacy endpoints were also analyzed using the MITT population.
Changes in FEV1 (forced expiratory volume in 1 second), FVC (forced vital capacity) and FEF 25-75 (forced expiratory flow 25-75%) from Day 1 to all subsequent visits were determined for patients. Tables 26 and 27 summarize the results for FEV1 measurements in EE and MITT populations, respectively. FIGS. 7 and 8 show graphs of percent change in FEV1 (L) and percent change in FEV1(L) vs. placebo, respectively, at Day 28 for the EET population treated with placebo, 120 mg QD, 240 mg QD, or 240 mg BID. […] Tables 28 and 29 summarize the results for predicted FEVI measurements in EE and MITT populations, respectively. Tables 30 and 31 summarize results for FEF 25-75 measurements in EE and MITT populations, respectively.

[1] = EE, 240 mg BID, Day 1 (baseline)
[2] = Day 1 (baseline), combined 240 mg QD and BID
[3] = Day 14, combined 240 mg QD and BID
[4] = Day 28, combined 240 mg QD and BID
[5] = MITT, 240 mg BID, Day 1 (baseline)

## C[C@H]1COc2c(N3CCN(C)CC3)c(F)cc3c(=O)c(C(=O)O)cn1c23 [Levofloxacin, levofloxacin]
EE population, Day 28, combined 240 mg QD and BID
  FEF 25-75, Median: 0.97
EE, 120 mg QD, Day 1
  FEF 25-75, Median: 0.98
  FEV1, median: 1.87 L
EE, 120 mg QD, Day 28
  FEF 25-75, Median: 1.03
  FEV1, median: 1.91 L
EE, 120 mg QD
  Increase in FEF 25-75: approximately 5%
  Increase in FEV1: approximately 2%
[1]
  FEF 25-75, Median: 0.68
  FEV1, median: 1.70 L
EE, 240 mg BID, Day 28
  FEF 25-75, Median: 0.78
  FEV1, median: 1.79 L
EE, 240 mg BID
  Increase in FEF 25-75: approximately 15%
  Increase in FEV1: approximately 5%
EE, 240 mg QD, Day 1
  FEF 25-75, Median: 1.10
  FEV1, median: 2.02 L
EE, 240 mg QD, Day 28
  FEF 25-75, Median: 1.15
  FEV1, median: 2.15 L
EE, 240 mg QD
  Increase in FEF 25-75: approximately 4%
  Increase in FEV1: approximately 6%
EE, Day 14
  Largest difference for FEF 25-75, placebo vs levofloxacin: 0.25 L
  Largest difference for FEV1, placebo vs levofloxacin: 0.16 L
EE, Day 28
  Largest difference for FEF 25-75, placebo vs levofloxacin: 0.21 L
  Largest difference for FEV1, placebo vs levofloxacin: 0.24 L
120 mg QD
  FEV1, Day 1, Mean: 1.95
  FEV1, Day 1, Median: 1.83
  FEV1, Day 14, Mean: 1.97
  FEV1, Day 14, Median: 1.79
  FEV1, Day 28, Mean: 1.99
  FEV1, Day 28, Median: 1.83
  FEV1, Percent Change from Baseline to Day 14, Mean: 1.87%
  FEV1, Percent Change from Baseline to Day 14, Median: 0.56%
  FEV1, Percent Change from Baseline to Day 28, Mean: 1.92%
  FEV1, Percent Change from Baseline to Day 28, Median: 1.60%
240 mg BID
  FEV1, Day 1, Mean: 1.88
  FEV1, Day 1, Median: 1.70
  FEV1, Day 14, Mean: 2.04
  FEV1, Day 14, Median: 1.90
  FEV1, Day 28, Mean: 1.93
  FEV1, Day 28, Median: 1.82
  FEV1, Percent Change from Baseline to Day 14, Mean: 9.34%
  FEV1, Percent Change from Baseline to Day 14, Median: 7.51%
  FEV1, Percent Change from Baseline to Day 28, Mean: 5.93%
  FEV1, Percent Change from Baseline to Day 28, Median: 3.55%
240 mg QD
  FEV1, Day 1, Mean: 2.05
  FEV1, Day 1, Median: 1.90
  FEV1, Day 14, Mean: 2.12
  FEV1, Day 14, Median: 2.04
  FEV1, Day 28, Mean: 2.09
  FEV1, Day 28, Median: 2.10
  FEV1, Percent Change from Baseline to Day 14, Mean: 3.81%
  FEV1, Percent Change from Baseline to Day 14, Median: 1.92%
  FEV1, Percent Change from Baseline to Day 28, Mean: 2.35%
  FEV1, Percent Change from Baseline to Day 28, Median: 1.28%
Combined 240 mg QD and BID
  FEV1, Day 1, Mean: 1.96
  FEV1, Day 1, Median: 1.80
  FEV1, Day 14, Mean: 2.08
  FEV1, Day 14, Median: 1.97
  FEV1, Day 28, Mean: 2.01
  FEV1, Day 28, Median: 1.95
  FEV1, Percent Change from Baseline to Day 14, Mean: 6.61%
  FEV1, Percent Change from Baseline to Day 14, Median: 3.94%
  FEV1, Percent Change from Baseline to Day 28, Mean: 4.14%
  FEV1, Percent Change from Baseline to Day 28, Median: 2.50%
Day 1 (baseline), 120 mg QD
  % predicted FEV1, Mean: 52.9%
  % predicted FEV1, Median: 53.0%
Day 1 (baseline), 240 mg BID
  % predicted FEV1, Mean: 48.8%
  % predicted FEV1, Median: 46.0%
Day 1 (baseline), 240 mg QD
  % predicted FEV1, Mean: 55.4%
  % predicted FEV1, Median: 56.0%
[2]
  % predicted FEV1, Mean: 52.0%
  % predicted FEV1, Median: 51.0%
Day 14, 120 mg QD
  % predicted FEV1, Mean: 53.9%
  % predicted FEV1, Median: 53.0%
Day 14, 240 mg BID
  % predicted FEV1, Mean: 52.1%
  % predicted FEV1, Median: 49.56%
Day 14, 240 mg QD
  % predicted FEV1, Mean: 57.1%
  % predicted FEV1, Median: 61.0%
[3]
  % predicted FEV1, Mean: 54.6%
  % predicted FEV1, Median: 52.0%
Day 28, 120 mg QD
  % predicted FEV1, Mean: 54.1%
  % predicted FEV1, Median: 50.0%
Day 28, 240 mg BID
  % predicted FEV1, Mean: 50.8%
  % predicted FEV1, Median: 49.0%
Day 28, 240 mg QD
  % predicted FEV1, Mean: 56.7%
  % predicted FEV1, Median: 54.0%
[4]
  % predicted FEV1, Mean: 53.8%
  % predicted FEV1, Median: 53.5%
[5]
  FEF 25-75, Median: 0.68
  FEV1, median: 1.70 L
MITT, 240 mg BID, Day 28
  FEF 25-75, Median: 0.82
  FEV1, median: 1.82 L
MITT, 240 mg BID
  Increase in FEF 25-75: approximately 20%
  Increase in FEV1: approximately 7%
MITT, 240 mg QD, Day 1
  FEF 25-75, Median: 1.09
  FEV1, median: 1.90 L
MITT, 240 mg QD, Day 28
  FEF 25-75, Median: 1.12
  FEV1, median: 2.10 L
MITT, 240 mg QD
  Increase in FEF 25-75: approximately 3%
  Increase in FEV1: approximately 10%
MITT, Day 14
  Largest difference for FEF 25-75, placebo vs levofloxacin: 0.27 L
  Largest difference for FEV1, placebo vs levofloxacin: 0.12 L
MITT, Day 28
  Largest difference for FEF 25-75, placebo vs levofloxacin: 0.21 L
  Largest difference for FEV1, placebo vs levofloxacin: 0.25 L
